Experimental data published in US8178506B2, “Oligomeric compounds and compositions for use in modulation of small non-coding RNAs” (Regulus Therapeutics Inc., priority 2003, dated 2012).
In the oligonucleotide strings, read from the 5' end, every base follows the letter of its sugar. An asterisk marks phosphorothioate; unmarked linkages are phosphodiester. Other units and linkages are bracketed, terminal groups are in braces. A string of capitals states the bases alone. e = 2'-O-(2-methoxyethyl) (MOE); [5mC] = 5-methylcytosine

How the values were obtained:
[1] = test system: adipocytes; assay: Triglyceride accumulation assay in adipocytes; type: cell-based, human
[2] = test system: aP2; assay: aP2 mRNA expression in adipocytes (real-time PCR); type: cell-based, human; conditions: for AP2 (mRNA expression): adipocytes, 250 nM oligomeric compound, day nine post-transfection, relative to control (1.0)
[3] = test system: HSL; assay: HSL mRNA expression in adipocytes (real-time PCR); type: cell-based, human; conditions: for HSL (mRNA expression): adipocytes, 250 nM oligomeric compound, day nine post-transfection, relative to control (1.0); for HSL mRNA: differentiating adipocytes transfected with oligomeric compound
[4] = test system: Glut4; assay: Glut4 mRNA expression in adipocytes (real-time PCR); type: cell-based, human; conditions: for Glut4 (mRNA expression): adipocytes, 250 nM oligomeric compound, day nine post-transfection, relative to control (1.0); for GLUT4 mRNA: differentiating adipocytes transfected with oligomeric compound
[5] = test system: PPARγ; assay: PPARγ mRNA expression in adipocytes (real-time PCR); type: cell-based, human; conditions: for PPAR gamma (mRNA expression): adipocytes, 250 nM oligomeric compound, day nine post-transfection, relative to control (1.0); for PPAR gamma mRNA: differentiating adipocytes transfected with oligomeric compound
[6] = test system: BJ, B16-F10, T47D, T47Dp53 and HeLa cells; assay: Cell cycle assay (propidium iodide flow cytometry), cell line panel; type: cell-based; conditions: 150 nM oligomeric compound, 4.5 μg/ml LIPOFECTIN, after 72 hours, propidium iodide flow cytometry
[7] = test system: HuVECs; assay: Endothelial tube formation assay in HuVECs; conditions: 75 nM oligomeric compound
[8] = adipocytes, 250 nM oligomeric compound, relative to control (1.0), Table 15
[9] = adipocytes, 250 nM oligomeric compound, relative to control (1.0), Table 16
[10] = differentiating adipocytes transfected with oligomeric compound, Table 75
[11] = differentiating adipocytes transfected with oligomeric compound

Row | Substance | TG (triglyceride accumulation) [1, 8] | TG (triglyceride accumulation) [1, 9] | AP2 (mRNA expression) ([2]; Table 15) | AP2 (mRNA expression) ([2]; Table 16) | HSL (mRNA expression) ([3]; Table 15) | HSL (mRNA expression) ([3]; Table 16) | Glut4 (mRNA expression) ([4]; Table 15) | Glut4 (mRNA expression) ([4]; Table 16) | PPAR gamma (mRNA expression) ([5]; Table 15) | PPAR gamma (mRNA expression) ([5]; Table 16) | G1 (percentage of cells in phase of the cell cycle) [6] [%] | G2/M (percentage of cells in phase of the cell cycle) [6] [%] | S (percentage of cells in phase of the cell cycle) [6] [%] | SubG1 (percentage of cells in phase of the cell cycle) [6] [%] | aneuploid (percentage of cells) [6] [%] | % Activity Relative to UTC (tube formation) ([7]; Table 56) [%] | % Activity Relative to UTC (tube formation) ([7]; Table 57) [%] | TG (triglyceride accumulation) [1, 11] | AP2 mRNA [2, 11] | HSL mRNA [3] | other results
1 | 327889 (antisense eG*eT*eG*eG*eT*eA*eA*eT*e[5mC]*e[5mC]*e[5mC]*eT*eG*eG*e[5mC]*eA*eA*eT*eG*eT*eG*eA*eT) [compound 327889] | 0.47 | 0.46 | 0.69 | 0.57 | 0.59 | 0.54 | 0.55 | 0.46 | 0.71 | 0.82 | 53.1 | 14.4 | 32.5 | 8.2 | 10.5 | 50.0 | – | – | – | – | –
2 | 327907 (antisense eA*eG*e[5mC]*e[5mC]*eT*eA*eT*e[5mC]*e[5mC]*eT*eG*eG*eA*eT*eT*eA*e[5mC]*eT*eT*eG*eA*eA) [compound 327907] | – | – | – | – | – | – | – | – | – | – | 49.5 | 17.6 | 32.8 | 17.8 | 17.8 | – | 62.1 | – | – | – | TG (triglyceride accumulation) [1, 10]: 19 percentage of untreated control (UTC); aP2 mRNA [2, 10]: 29 percentage of untreated control (UTC); HSL mRNA ([3]; Table 75): 21 percentage of untreated control (UTC); GLUT4 mRNA ([4]; Table 75): 6 percentage of untreated control (UTC); PPAR gamma mRNA ([5]; Table 75): 49 percentage of untreated control (UTC)
3 | 327904 (antisense eA*e[5mC]*eT*e[5mC]*eA*e[5mC]*e[5mC]*eG*eA*e[5mC]*eA*eG*e[5mC]*eG*eT*eT*eG*eA*eA*eT*eG*eT*eT) [compound 327904] | – | – | – | – | – | – | – | – | – | – | 54.4 | 16.2 | 29.5 | 8.6 | 15.6 | – | 89.7 | 56 percentage of untreated control (UTC) | 65 percentage of untreated control (UTC) | 42 percentage of untreated control (UTC) | GLUT4 mRNA [4]: 40 percentage of untreated control (UTC); PPAR gamma mRNA [5]: 54 percentage of untreated control (UTC)
4 | 327903 (antisense eA*eA*e[5mC]*eT*eA*eT*eA*e[5mC]*eA*eA*e[5mC]*e[5mC]*eT*eA*e[5mC]*eT*eA*e[5mC]*e[5mC]*eT*e[5mC]*eA) [compound 327903] | 1.20 | 0.58 | 1.15 | 0.92 | 1.23 | 0.80 | 1.72 | 1.12 | 1.19 | 0.98 | 53.7 | 15.4 | 30.9 | 11 | 13.4 | – | 103.5 | – | – | – | –
5 | 327951 (antisense e[5mC]*eA*e[5mC]*eA*eA*eA*e[5mC]*e[5mC]*eA*eT*eT*eA*eT*eG*eT*eG*e[5mC]*eT*eG*e[5mC]*eT*eA) [compound 327951] | – | – | – | – | – | – | – | – | – | – | 60.9 | 14.3 | 24.8 | 4.3 | 16.7 | – | – | 76 percentage of untreated control (UTC) | 91 percentage of untreated control (UTC) | 100 percentage of untreated control (UTC) | GLUT4 mRNA [4]: 81 percentage of untreated control (UTC); PPAR gamma mRNA [5]: 84 percentage of untreated control (UTC); % Activity Relative to UTC (tube formation) ([7]; Table 59): 73.3%
6 | 327878 (antisense e[5mC]*eT*eA*eG*eT*eG*eG*eT*e[5mC]*e[5mC]*eT*eA*eA*eA*e[5mC]*eA*eT*eT*eT*e[5mC]*eA*e[5mC]) [compound 327878] | 0.65 | – | 0.85 | – | 0.93 | – | 0.69 | – | 0.97 | – | 39.1 | 20 | 40.8 | 17.3 | 11.9 | 57.1 | – | – | – | – | –
